Source: US8203011B2, “3′,4′,5-trimethoxy flavone derivatives as stimulant of mucus secretion, method for the same, and pharmaceutical composition comprising the same” (Dong-A Pharm. Co., Ltd., priority 2007, dated 2012)

How the values were obtained:
[1] = system: human mucoepidermoid pulmonary carcinoma cell line NCI-H292; experiment: Mucin secretion (MUC4, MUC5AC) by ELISA in NCI-H292 cells; assay type: cell-based; conditions: 24 hours, read-out: % increase in mucin secretion vs. non-treated control group; for activation at 20 µg/mL: 20 μg/mL; for activation at 100 µg/mL: 100 μg/mL; for activation at 0.8 µg/mL: 0.8 μg/mL; for activation at 4 µg/mL: 4 μg/mL
Method: 2×10^5 cells/well of the human mucoepidermoid pulmonary carcinoma cell line NCI-H292 (ATCC, #CRL-1848) were seeded on a 96-well plate, and treated with 3′,4′,5-trimethoxy flavone derivatives at various concentrations of 0.16 to 100 μg/mL for 24 hours. Thereafter, secretion levels of representative transmembrane mucin MUC4 and secretory mucin MUC5AC were measured by enzyme-linked immunosorbent assay (ELISA).

[2] = system: rabbit model of dry eye syndrome; experiment: Alcian blue assay of conjunctival mucus secretion in N-acetylcysteine-induced rabbit dry eye syndrome model; assay type: in vivo, New Zealand White (NZW) rabbits; conditions: 0.5% solution instilled 4 times/day (0.1 mL) for seven days; conjunctiva, absorbance at 605 nm; Mean ± S.D.
Method: (§1) Male New Zealand White (NZW) rabbits were randomly assigned into two groups, each consisting of 5 animals. In order to induce dry eye syndrome, N-acetylcysteine was first dissolved at a concentration of 20% in physiological saline. Then, the rabbit's lower eyelid was pulled slightly away from the globe to form a cup shape and the above-prepared N-acetylcysteine solution was instilled into the conjunctival sac six times every 2 hours, resulting in establishment of an animal model of dry eye syndrome. 3′,4′,5-trimethoxy flavone derivatives were dissolved at a concentration of 0.5% in a 0.1N sodium hydroxide solution which was then titrated to pH 7.0 to 8.0 with 10% acetic acid. From the following day after induction of dry eye syndrome, the titrated 3′,4′,5-trimethoxy flavone derivatives were repeatedly instilled into conjunctival sacs of animals at a dose frequency of 4 times/day (0.1 mL/each time) for seven consecutive days. On the next day following the induction of dry eye syndrome and upon completion of the experiment, the degree of ocular surface damage was evaluated to calculate a damage decrease rate (%) using Rose Bengal assay, and mucus secretion in the conjunctiva was quantitatively analyzed using Alcian blue assay. More specifically referring to Rose Bengal assay, 10 μl of a 1% Rose Bengal solution was dropped into the eyes of animals, and distribution and intensity of Rose Bengal staining were scored according to the method disclosed in Urashima et al., Cornea, 23:613-9, 2004. For Alcian blue assay, the rabbit's conjunctivae were excised, weighed, stained with a 0.1% Alcian blue solution for 2 hours and then washed with a 0.25 M sucrose solution. Following extraction with a 0.5 M magnesium chloride solution, the absorbance was measured at 605 nm.

[3] = system: rabbit model of dry eye syndrome; experiment: Rose Bengal assay of ocular surface damage in N-acetylcysteine-induced rabbit dry eye syndrome model; assay type: in vivo, New Zealand White (NZW) rabbits; conditions: 0.5% solution instilled into conjunctival sac 4 times/day (0.1 mL) for seven days; Mean ± S.D.
Method: as §1

Structure (SMILES) | activation at 20 µg/mL [1] [%] | activation at 100 µg/mL [1] [%] | Alcian Blue Assay Absorbance/g tissue [2] [Absorbance/g tissue] | Rose Bengal Assay Damage decrease rate (%) [3] [%] | activation at 0.8 µg/mL [1] [%] | activation at 4 µg/mL [1] [%]
COc1ccc(-c2cc(=O)c3c(OC)cc(OCC(=O)NC#N)cc3o2)cc1OC [Example 4, 7-{(N-cyanocarbamoyl)-methyloxy}-3′,4′,5-trimethoxy flavone] | 4.3 | 25.2 | 0.24 ± 0.19 | 83.8 ± 4.6 |  | 
COc1ccc(-c2cc(=O)c3c(OC)cc(OCC(=O)NS(=O)(=O)c4ccccc4)cc3o2)cc1OC [Example 5, 7-{(N-benzenesulfonylcarbamoyl)methyloxy}-3′,4′,5-trimethoxy flavone] | 35.4 | 70.9 | 0.32 ± 0.09 | 70.1 ± 5.2 | 43.9 | 45.4
COc1ccc(-c2cc(=O)c3c(OC)cc(OCC(=O)NS(C)(=O)=O)cc3o2)cc1OC [Example 9, 7-{(methylsulfonylcarbamoyl)methyloxy}-3′,4′,5-trimethoxy flavone] | 37.4 | 43.3 | 0.35 ± 0.13 | 76.8 ± 8.4 | 9.7 | 15.9
COc1ccc(-c2cc(=O)c3c(OC)cc(OCC(=O)NS(N)(=O)=O)cc3o2)cc1OC [Example 8, 7-{(aminosulfonylcarbamoyl)methyloxy}-3′,4′,5-trimethoxy flavone] | 15.4 | 21.4 |  |  | 4.4 | 10.2
COc1ccc(-c2cc(=O)c3c(OC)cc(OCC(N)=O)cc3o2)cc1OC [Example 3, 7-{(carbamoyl)methyloxy}-3′,4′,5-trimethoxy flavone] | 10.4 | 15.8 |  |  | 2.2 | 6.6
COc1ccc(-c2cc(=O)c3c(OC)cc(OCC(=O)NC(N)=O)cc3o2)cc1OC [Example 10, 7-{(carbamylcarbamoyl)methyloxy}-3′,4′,5-trimethoxy flavone] | 15.4 | 25.9 |  |  |  | 6.7
COc1ccc(-c2cc(=O)c3c(OC)cc(OCC(=O)O)cc3o2)cc1OC.O [7-carboxymethyloxy-3′,4′,5-trimethoxy flavone monohydrate] | 52.5 | 75.9 | 0.38 ± 0.08 | 88.5 ± 4.7 | 24.8 | 39.1
COc1ccc(-c2cc(=O)c3c(OC)cc(OCc4nnn[nH]4)cc3o2)cc1OC [Example 1, 7-(tetrazol-5-ylmethyloxy)-3′,4′,5-trimethoxy flavone] | 57.8 | 52 |  |  | 18.7 | 28.1
COc1ccc(-c2cc(=O)c3c(OC)cc(OCC(=O)NC(C)=O)cc3o2)cc1OC [Example 12, 7-{(acetylcarbamoyl)methyloxy}-3′,4′,5-trimethoxy flavone] | 20.5 | 30.2 |  |  | 15.2 | 13.6
